pIC50: −log10 of the molar value.
Target: T1, human LPAAT-β (Homo sapiens, UniProt O15120)
T1 construct: the full-length human LPAAT-β cDNA was amplified by PCR; poly-histidine tag (N); made in house; host or cells: Sf9 insect cells (baculovirus, pFastBac HTc); the membrane fraction was used as the enzyme
T1 sequence (O15120 24-278): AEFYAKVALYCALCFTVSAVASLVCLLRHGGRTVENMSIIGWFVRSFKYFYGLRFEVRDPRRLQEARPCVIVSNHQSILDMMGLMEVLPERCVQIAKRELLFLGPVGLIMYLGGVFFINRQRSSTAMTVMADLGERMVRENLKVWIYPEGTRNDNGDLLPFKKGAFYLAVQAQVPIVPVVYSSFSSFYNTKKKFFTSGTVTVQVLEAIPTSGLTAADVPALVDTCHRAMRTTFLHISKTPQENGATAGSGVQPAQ
Assay: LPAAT-β cell-free assay
Format: biochemical
Details: Sf9 cell membrane overexpressing recombinant LPAAT-β
Text: For the construction of Baculovirus expression vectors, the full-length human LPAAT-β cDNA was amplified by PCR from the DNA template pCE9.LPAAT-β (West et al., DNA Cell Bid. 16.691-701 (1997)) using the primers 5′-[…] […] […] […]-3′ (olpb1F; SEQ ID NO:1) and 5′-[…] […] […]-3′ (olpb1R; SEQ ID NO:2). The ˜870 bp fragment generated was reamplified by PCR using the primers 5′ […] […] […] […] ATC-3′ (olpb2F; SEQ ID NO:3) and 5′-[…] […] […]-3′ (olpb1R; SEQ ID NO:2). The ˜890 bp fragment generated was then cleaved with Sal I and Xba I for insertion into pFastBac™ HTc vector (Life Technologies, Gaithersberg, M.d.) between the Sal I and Xba I sites for the generation of the plasmid pFB.LPAAT-β. This plasmid was then transformed into E. coli DH10Bac™ (Life Technologies, Gaithersberg, M.d.) for the generation of recombinant Bacmid DNA for transfection in HighFive (Invitrogen, San Diego, Calif.) or SF9 insect cells for the production of recombinant Baculovirus stocks using the protocol described in the Bac-to-Bac® Baculovirus Expression System (Life Technologies, Gaithersberg, M.d.), a eukaryotic expression system for generating recombinant baculovirus through site-specific transposition in E. coli. Viral stocks harvested from the transfected cells can then be used to infect fresh insect cells for the subsequence expression of LPAAT-β fusion protein with a poly-histidine tag and a myc-epitope near its N-terminus. The membrane fraction from these Sf9 cells would be the source of LPAAT enzyme.
For the preparation of membranes from Sf9 Cells, all steps are performed on ice or at 4° C. Sf9 cell pellets (˜10^8 cells) were thawed and resuspended in 1-2 ml of buffer A (20 mM Hepes, pH 7.5, 1 mM DTT, 1 mM EDTA, 20% w/v glycerol, 1 mM Benzamidine, 1 μg/ml soybean trypsin inhibitor (SBTI), 1 μug/ml pepstatin A) w/o DTT but with 1 mM Pefabloc. The cells were lysed by sonication using a Branson Sonifier at output=2, duty cycle=2, 10 pulses each at 10 s. with the tip of small sonicator probe submerged but not touching the walls. DTT was then added to 1 mM from a 1 M stock. The samples were centrifuged at 1500 rpm for 5 min. The low speed supernatant was saved and centrifuged (TLA 100.3 rotor, polycarbonate tubes, 2 ml/tube or 1.5 ml/tube minimum) at 100000×g for 1 hr. The high speed pellet was resuspend in Buffer A with a probe sonicator (10 pulses @ output #2 and duty cycle 20%) as a source of LPAAT enzyme.
LPAAT-β catalyzes the transfer of an acyl group from a donor such as acyl-CoA to LPA. The transfer of the acyl group from acyl-CoA to LPA leads to the release of free CoA, which can be reacted with the thiol reagent, 5,5′-dithiobis(2-nitrobenzoic acid) (DTNB). The reaction between DTNB and the free sulfhydryl group from CoA generates a yellow-colored product, 3-carboxylato-4-nitrothiophenolate (CNP), that absorbs at 413 nm. LPAAT-β derived from Sf9 cell membrane overexpressing LPAAT-β were resuspended in HEPES saline buffer (20 mM HEPES pH 7.5, 150 mM NaCl), 1 mg/ml BSA and 72 μl aliquots were distributed into 96-well microtiter plates. 8 μl of compound of interest at 200 μM dissolved in 100% DMSO was added into each well. […] of 1 mM 18:1-CoA and 1 mM sn-1-18:1 lysoPA was then added to each well to initiate the reaction and allowed to run at room temperature for 25 min. 100 μl of 1 mM DTNB in 100% ethanol was then added to each well to quench the reaction and for color development. The absorbance at 405 nm, measured using a spectrophotometer plate reader, is proportional to the activity of LPAAT-2 in the sample. This colorimetric assay was used for the high throughput screening of LPAAT inhibitors.
The radiometric assay was carried out in Sf9 cell membrane overexpressing LPAAT-β resuspended in HEPES-saline buffer, pH 7.5, 1 mg/ml BSA, 1 mM EDTA and 200 μM [^14C]18:1-CoA and 200 μM sn-1-18:1 lysoPA.

Row | pIC50 | SMILES
1 | 6.92 | COc1ccc(Cl)cc1-c1cc(Nc2ccc(C)cc2)nc(N)n1 [Example 1, 6-(5-Chloro-2-methoxy-phenyl)-N*4*-p-tolyl-pyrimidine-2,4-diamine]
2 | 7.27 | COc1ccc(Cl)cc1-c1cc(Nc2ccc(Cl)cc2)nc(N)n1 [Example 2, 6-(5-Chloro-2-methoxy-phenyl)-N*4*-(4-chloro-phenyl)-pyrimidine-2,4-diamine]
3 | 7.10 | COc1ccc(Cl)cc1-c1cc(Nc2ccc3cn[nH]c3c2)nc(N)n1 [Example 3, 6-(5-Chloro-2-methoxy-phenyl)-N*4*-(1H-indazol-6-yl)-pyrimidine-2,4-diamine]
4 | 7.06 | COc1ccc(Cl)cc1-c1cc(Nc2ccc(C(F)(F)F)cc2)nc(N)n1 [Example 4, 6-(5-Chloro-2-methoxy-phenyl)-N*4*-(4-trifluoromethylphenyl)-pyrimidine-2,4-diamine]
5 | 7.54 | COc1ccc(Cl)cc1-c1cc(Nc2ccc(Br)cc2)nc(N)n1 [Example 5, N*4*-(4-Bromo-phenyl)-6-(5-chloro-2-methoxy-phenyl)-pyrimidine-2,4-diamine]
6 | 6.35 | COc1ccc(Cl)cc1-c1cc(Nc2ccc(O)cc2)nc(N)n1 [Example 6, 4-[2-Amino-6-(5-chloro-2-methoxy-phenyl)-pyrimidin-4-ylamino]-phenol]
7 | 6.39 | COc1ccc(Nc2cc(-c3cc(Cl)ccc3OC)nc(N)n2)cc1 [Example 7, 6-(5-Chloro-2-methoxy-phenyl)-N*4*-(4-methoxy-phenyl)-pyrimidine-2,4-diamine]
8 | 6.57 | COc1ccc(Cl)cc1-c1cc(Nc2ccc3ncsc3c2)nc(N)n1 [Example 8, N*4*-Benzothiazol-6-yl-6-(5-chloro-2-methoxy-phenyl)-pyrimidine-2,4-diamine]
9 | 6.22 | COC(=O)c1ccc(Nc2cc(-c3cc(Cl)ccc3OC)nc(N)n2)cc1 [Example 9, 4-[2-Amino-6-(5-chloro-2-methoxy-phenyl)-pyrimidin-4-ylamino]-benzoic acid methyl ester]
10 | 6.92 | COc1ccc(Cl)cc1-c1cc(Nc2ccc(CO)cc2)nc(N)n1 [Example 10, {4-[2-Amino-6-(5-chloro-2-methoxy-phenyl)-pyrimidin4-ylamino]-phenyl}-methanol]
11 | 7.85 | COc1ccc(Cl)cc1-c1cc(Nc2ccc([N+](=O)[O-])cc2)nc(N)n1 [Example 11, 6-(5-Chloro-2-methoxy-phenyl)-N*4*-(4-nitro-phenyl)-pyrimidine-2,4-diamine]
12 | 7.02 | COc1ccc(Cl)cc1-c1cc(Nc2ccc(N)cc2)nc(N)n1 [Example 12, N*4*-(4-Amino-phenyl)-6-(5-chloro-2-methoxy-phenyl)-pyrimidine-2,4-diamine]
13 | 7.00 | COc1ccc(Cl)cc1-c1cc(Nc2ccc3c(c2)OCO3)nc(N)n1 [Example 13, N*4*-Benzo [1,3]dioxol-5-yl-6-(5-chloro-2-methoxy-phenyl)-pyrimidine-2,4-diamine]
14 | 7.59 | Nc1nc(Nc2ccc(Br)cc2)cc(-c2cc(Cl)ccc2Cl)n1 [Example 14, N*4*-(4-Bromo-phenyl)-6-(2,5-dichloro-phenyl)-pyrimidine-2,4-diamine]
15 | 7.30 | Cc1ccc(Nc2cc(-c3cc(Cl)ccc3Cl)nc(N)n2)cc1 [Example 15, 6-(2,5-Dichloro-phenyl)-N*4*-p-tolyl-pyrimidine-2,4-diamine]
16 | 6.92 | COc1ccc(Nc2cc(-c3cc(Cl)ccc3Cl)nc(N)n2)cc1 [Example 16, 6-(2,5-Dichloro-phenyl)-N*4*-(4-methoxy-phenyl)-pyrimidine-2,4-diamine]

Row | pIC50 | SMILES
17 | 6.62 | Nc1nc(Nc2ccc(O)cc2)cc(-c2cc(Cl)ccc2Cl)n1 [Example 17, 4-[2-Amino-6-(2,5-dichloro-phenyl)-pyrimidin-4-ylamino]-phenol]
18 | 7.09 | Nc1nc(Nc2ccc(C(F)(F)F)cc2)cc(-c2cc(Cl)ccc2Cl)n1 [Example 18, 6-(2,5-Dichloro-phenyl)-N*4*-(4-trifuoromethyl-phenyl)-pyrimidine-2,4-diamine]
19 | 7.57 | Nc1nc(Nc2ccc3cn[nH]c3c2)cc(-c2cc(Cl)ccc2Cl)n1 [Example 19, 6-(2,5-Dichloro-phenyl)-N*4*-(1H-indazol-6-yl)-pyrimidine-2,4-diamine]
20 | 7.70 | Nc1nc(Nc2ccc(Cl)cc2)cc(-c2cc(Cl)ccc2Cl)n1 [Example 20, N*4*-(4-Chloro-phenyl)-6-(2,5-dichloro-phenyl)-pyrimidine-2,4-diamine]
21 | 6.48 | COC(=O)c1ccc(Nc2cc(-c3cc(Cl)ccc3Cl)nc(N)n2)cc1 [Example 21, 4-[2-Amino-6-(2,5-dichloro-phenyl)-pyrimidin-4-yl-amino]-benzoic acid methyl ester]
22 | 7.22 | Nc1nc(Nc2ccc(CO)cc2)cc(-c2cc(Cl)ccc2Cl)n1 [Example 22, {4-[2-Amino-6-(2,5-dichloro-phenyl)-pyrimidin-4-yl-amino]-phenyl}-methanol]
23 | 7.02 | Nc1nc(Nc2ccc3c(c2)OCO3)cc(-c2cc(Cl)ccc2Cl)n1 [Example 23, N*4*-Benzo[1,3]dioxol-5-yl-6-(2,5-dichloro-phenyl)-pyrimidine-2,4-diamine]
24 | 7.54 | N#Cc1ccc(Nc2cc(-c3cc(Cl)ccc3Cl)nc(N)n2)cc1 [Example 24, 4-[2-Amino-6-(2,5-dichloro-phenyl)-pyrimidin-4-ylamino]-benzonitrile]
25 | 8.05 | Nc1nc(Nc2ccc([N+](=O)[O-])cc2)cc(-c2cc(Cl)ccc2Cl)n1 [Example 25, 6-(2,5-Dichloro-phenyl)-N*4*-(4-nitro-phenyl)-pyrimidine-2,4-diamine]
26 | 7.03 | Cc1ccc(Nc2cc(-c3cc(Cl)ccc3C)nc(N)n2)cc1 [Example 26, 6-(5-Chloro-2-methyl-phenyl)-N*4*-p-tolyl-pyrimidine-2,4-diamine]
27 | 7.55 | Cc1ccc(Cl)cc1-c1cc(Nc2ccc(Cl)cc2)nc(N)n1 [Example 27, 6-(5-Chloro-2-methyl-phenyl)-N*4*-(4-chloro-phenyl)-pyrimidine-2,4-diamine]
28 | 6.70 | COc1ccc(Nc2cc(-c3cc(Cl)ccc3C)nc(N)n2)cc1 [Example 28, 6-(5-Chloro-2-methyl-phenyl)-N*4*-(4-methoxy-phenyl)-pyrimidine-2,4-diamine]
29 | 6.87 | Cc1ccc(Cl)cc1-c1cc(Nc2ccc(C(F)(F)F)cc2)nc(N)n1 [Example 29, 6-(5-Chloro-2-methyl-phenyl)-N*4*-(4-trifluoromethyl-phenyl)-pyrimidine-2,4-diamine]
30 | 7.47 | Cc1ccc(Cl)cc1-c1cc(Nc2ccc(Br)cc2)nc(N)n1 [Example 30, N*4*-(4-Bromo-phenyl)-6-(5-chloro-2-methyl-phenyl)-pyrimidine-2,4-diamine]
31 | 7.49 | Cc1ccc(Cl)cc1-c1cc(Nc2ccc3cn[nH]c3c2)nc(N)n1 [Example 31, 6-(5-Chloro-2-methyl-phenyl)-N*4*-(1H-indazol-6-yl)-pyrimidine-2,4-diamine]

Source: patent US7419984B2, “Pyrimidines and uses thereof” (Cell Therapeutics, Inc., priority 2002, dated 2008)
